Assay [1] deals with Bcl-2. The assay is described as follows: Bcl-2 inhibition assay in MCF-7 cells. Type of assay: cell-based, human. The conditions noted are these: for Bcl-2 Conc: compound at its IC50. The procedure:
(§1) The current study supplied compounds 6i and 10e to breast (MCF-7) cancer cell lines at their respective IC50 values. This led to a notable elevation of pro-apoptotic Bax expression, with a fold increase of 34 for compound 6i and 36 for compound 10e.
(§2) Compounds 6i and 10e were assessed for their ability to activate caspase-3, caspase-8, and Bax, as well as to downregulate the anti-apoptotic protein Bcl2 in the MCF-7 breast cancer cell line ([Abdelbaset et al., 2019]). Supplementary Appendix A provides more details.
Mix all the reagents thoroughly without foaming before use. Wash the microwells twice with approximately 300 μL Wash Buffer per well with thorough aspiration of microwell contents between washes. Take caution not to scratch the surface of the microwells. After the last wash, empty the wells and tap microwell strips on an absorbent pad or paper towel to remove excess Wash Buffer. Use the microwell strips immediately after washing or place upside down on a wet absorbent paper for not longer than 15 minutes. […] Add 100 μL of Sample Diluent in duplicate to all standard wells and to the blank wells. Prepare standard (1:2 dilution) in duplicate ranging from 32 ng/mL to 0.5 ng/mL. Add 100 μL of Sample Diluent, in duplicate, to the blank wells. Add 80 μL of Sample Diluent, in duplicate, to the sample wells. Add 20 μL of each Sample, in duplicate, to the designated wells. Add 50 μL of diluted biotin-conjugate to all wells, including the blank wells. Cover with a plate cover and incubate at room temperature, on a microplate shaker at 100 rpm if available, for 2 hours. Remove plate cover and empty the wells. Wash microwell strips 3 times as described in step 2. Add 100 μL of diluted Streptavidin-HRP to all wells, including the blank wells. Cover with a plate cover and incubate at room temperature, on a microplate shaker at 100 rpm if available, for 1 hour. Remove the plate cover and empty the wells. Wash microwell strips 3 times as described in step 2. Proceed to the next step. Pipette 100 μl of mixed TMB Substrate Solution to all wells, including the blanks. Incubate the microwell strips at room temperature (18° to 25°C) for about 15 minutes, if available on a rotator set at 100 rpm. Avoid direct exposure to intense light. The point, at which the substrate reaction is stopped, is often determined by the ELISA reader. Many ELISA readers record absorbance only up to 2.0 O.D. Therefore, the color development within individual microwells must be watched by the person running the assay and the substrate reaction stopped before positive wells are no longer properly detectable. Stop the enzyme reaction by quickly pipetting 100 μL of Stop Solution into each well, including the blank wells. It is important that the Stop Solution is spread quickly and uniformly throughout the microwells to completely inactivate the enzyme. Results must be read immediately after the Stop Solution is added or within one hour if the microwell strips are stored at 2 - 8°C in the dark. Read the absorbance of each microwell on a spectrophotometer using 450 nm as the primary wavelength.

Assay [2] concerns Bax. The experiment in a line: Bax activation assay in MCF-7 cells. Conditions: for Bax Conc: compound at its IC50; for Bax Fold change: vs untreated control. It counts as cell-based, human. The procedure: as §1, §2
Bring all reagents, except the human Bax-α Standard, to room temperature for at least 30 minutes prior to opening. The human Bax-α Standard solution should not be left at room temperature for more than 10 minutes. All standards, controls and samples should be run in duplicate. Refer to the Assay Layout Sheet to determine the number of wells to be used and put any remaining wells with the desiccant back into the pouch and seal the ziploc. Store unused wells at 4 °C. Pipet 100 μL of Assay Buffer into the S0 (0 pg/mL standard) wells. Pipet 100 μL of Standards #1 through #6 into the appropriate wells. Pipet 100 μL of the Samples into the appropriate wells. Tap the plate gently to mix the contents. Seal the plate and incubate at room temperature on a plate shaker for 1 hour at ~500 rpm. Empty the contents of the wells and wash by adding 400 μL of wash solution to every well. Repeat the wash 4 more times for a total of 5 washes. After the final wash, empty or aspirate the wells and firmly tap the plate on a lint free paper towel to remove any remaining wash buffer. Pipet 100 μL of yellow Antibody into each well, except the Blank. Seal the plate and incubate at room temperature on a plate shaker for 1 hour at ~500 rpm. Empty the contents of the wells and wash by adding 400 μL of wash solution to every well. Repeat the wash 4 more times for a total of 5 washes. After the final wash, empty or aspirate the wells and firmly tap the plate on a lint free paper towel to remove any remaining wash buffer. Add 100 μL of blue Conjugate to each well, except the Blank. Seal the plate and incubate at room temperature on a plate shaker for 30 minutes at ~500 rpm. Empty the contents of the wells and wash by adding 400 μL of wash solution to every well. Repeat the wash 4 more times for a total of 5 washes. After the final wash, empty or aspirate the wells and firmly tap the plate on a lint free paper towel to remove any remaining wash buffer. Pipet 100 μL of Substrate Solution into each well. Incubate for 30 minutes at room temperature on a plate shaker at ~500 rpm. Pipet 100 μL Stop Solution to each well. Blank the plate reader against the Blank wells, read the optical density at 450 nm. Calculate the average net Optical Density (OD) bound for each standard and sample by subtracting the average Blank OD from the average OD for each standard and sample. Using linear graph paper, plot the Average Net OD for each standard versus Bax concentration in each standard. Approximate a straight line through the points. The concentration of Bax in the unknowns can be determined by interpolation.

Regarding `NS(=O)(=O)c1ccc(-n2cc(CSc3nc4ccccc4[nH]3)nn2)cc1` [6i, 4-(4-(((1H-benzimidazol-2-yl)thio)methyl)-1H-1,2,3-triazol-1-yl)benzene-sulfonamide], the “Bcl-2 Conc” value in assay [1] was 0.85 ng/mL. In addition, in assay [2], the “Bax Conc” value is 310 ± 3 pg/mL and the “Bax Fold change” value stood at 34.

Take `O=[N+]([O-])c1cccc(-n2cc(Cn3c(SCc4ccccc4)nc4ccccc43)nn2)c1` [10e]: the “Bcl-2 Conc” value in assay [1] came out at 0.70 ng/mL. For the same compound, the “Bcl-2 Fold reduction” value in assay [1] (vs untreated control) is recorded as ~7. Besides, in assay [2], the “Bax Conc” value came to 325 ± 3 pg/mL and the “Bax Fold change” value turned out to be 36.

The values above are taken from article PMC11783063, “Design, synthesis, and apoptotic antiproliferative action of new benzimidazole/1,2,3-triazole hybrids as EGFR inhibitors” (Frontiers in Chemistry, 2025).
